Measurements reported in patent US6585963B1, “Nail compositions and methods of administering same” (Watson Pharmaceuticals, Inc., priority 2001, dated 2003).

Experiment: In vitro human cadaver nail flux study (modified Franz permeation cells)
Type: in vitro ADME
Procedure: The general methods for determining the in vitro nail flux are known in the art. See, for example, U.S. Pat. No. 5,696,164, and references cited therein.
In vitro human cadaver nail flux studies were conducted using modified Franz non-Jacketed permeation cells. The temperature of the nail surface was maintained at 32° C. by placing the cells in a circulating water bath positioned over a stirring module. Human fingernails or toenails were stored under frozen conditions in 0.02% (w/v) sodium azide solution or selected receiver medium. Nails that were greater than 1 cm^2 in area were used for the flux studies. Nails with dorsal side facing the donor compartment were sandwiched between two layers of a closed cell polyethylene foam film. Annular ring of 2.38 cm outer diameter and […] was cut from the backinig film. The area of the donut hole (0.97 cm^2) is large enough to provide complete contact with the receiver media. The purpose of the foam backing film was to prevent any leakage of receiver medium from the cell assembly. The nails were allowed to hydrate at 32° C. overnight with 0.02% (w/v) sodium azide solution in the receiver compartment.
The following morning, nail lacquer sufficient to cover the nail surface was placed onto the dorsal side of the nail. Alternatively, a fixed amount of the lacquer can also be used. Each nail was then loaded between the donor and receiver compartments of a diffusion cell, with the ventral side of nail facing the receiver compartment, and clamped in place. The duration of nail flux and retention study varied from 3 days to 3 weeks. At predetermined sampling intervals, the entire contents of the receiver compartment were collected for drug quantitation and the receiver compartment was filled with fresh receiver solution, taking care to eliminate any air bubbles at the skin/solution interface.
The cumulative amount of drug permeated per unit area at any time t (Qt, μg/cm^2) was determined as follows: [formula] […]

Structure (SMILES) | increase in flux rate (Examples II and III, 5% enhancer in Gantrez ES-335/FLC versus formulation without enhancer) | enhancement of nail flux of fluconazole (Example I, using 3-5% triacetin versus formulation without enhancer) | increase in flux rate of fluconazole by pretreatment (Example V, pretreatment with an N-methyl-pyrrolidone composition versus control solution)
CCCCCCCCCCCC(=O)N(CCO)CCO [L-DEA, Lauramide Diethanolamine (DEA)] | about 40% | – | –
OC(Cn1cncn1)(Cn1cncn1)c1ccc(F)cc1F [fluconazole, Fluconazole] | – | about 100% | about 70%
